Test results taken from PubChem BioAssay (NCI).
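Five compound concentrations were applied to cells in 96-well plates for 48 hours; endpoints were derived by simple linear interpolation of the resulting dose-response curve. Here, GI50 denotes the concentration required for 50% inhibition of growth. TGI marks complete inhibition of growth.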

How the values were obtained:
Assay in all cases: NCI-60 cell line screen, 48 h
[1] = tested on: SK-MEL-2 melanoma
[2] = tested on: EKVX NSCLC
[3] = tested on: SF-295 CNS
[4] = tested on: SNB-19 CNS
[5] = tested on: OVCAR-4 ovarian
[6] = tested on: SN12C renal
[7] = tested on: OVCAR-8 ovarian
[8] = tested on: SR leukemia
[9] = tested on: NCI-H460 lung
[10] = tested on: CAKI-1 renal
[11] = tested on: SK-MEL-5 melanoma
[12] = tested on: NCI-H226 lung
[13] = tested on: TK-10 renal
[14] = tested on: HCT-15 colon
[15] = tested on: OVCAR-5 ovarian
[16] = tested on: NCI-H522 lung
[17] = tested on: CCRF-CEM leukemia
[18] = tested on: SF-539 CNS
[19] = tested on: SW-620 colon
[20] = tested on: KM12 colon
[21] = tested on: OVCAR-3 ovarian
[22] = tested on: U251 CNS
[23] = tested on: A498 renal
[24] = tested on: LOX IMVI melanoma
[25] = tested on: ACHN renal
[26] = tested on: MDA-MB-435
[27] = tested on: MALME-3M melanoma
[28] = tested on: K-562 leukemia
[29] = tested on: COLO 205 colon
[30] = tested on: IGROV1 ovarian
[31] = tested on: PC-3 prostate
[32] = tested on: UACC-257 melanoma
[33] = tested on: HL-60(TB) leukemia
[34] = tested on: NCI/ADR-RES ovarian
[35] = tested on: M14 melanoma
[36] = tested on: SK-MEL-28 melanoma
[37] = tested on: HCT-116 colon
[38] = tested on: HCC-2998 colon
[39] = tested on: RXF 393 renal
[40] = tested on: SNB-75 CNS
[41] = tested on: MDA-MB-231 breast
[42] = tested on: SK-OV-3 ovarian
[43] = tested on: A549 NSCLC
[44] = tested on: RPMI-8226 leukemia
[45] = tested on: HS 578T breast
[46] = tested on: BT-549 breast
[47] = tested on: SF-268 CNS
[48] = tested on: NCI-H23 lung
[49] = tested on: MOLT-4 leukemia
[50] = tested on: HT29 colon
[51] = tested on: MCF7 breast
[52] = tested on: UACC-62 melanoma
[53] = tested on: 786-0 renal
[54] = tested on: HOP-92 NSCLC
[55] = tested on: DU-145 prostate
[56] = tested on: T-47D breast
[57] = tested on: HOP-62 NSCLC

COc1cc2c(cc1OCCCCCCN1CCN(c3ncnc4ccccc34)CC1)N=CC1CCCN1C2=O (stereo not given)
GI50 [1]: 195 nM
TGI [1]: 1830 nM
GI50 [2]: 354 nM
TGI [2]: 2010 nM
GI50 [3]: 50.8 nM
TGI [3]: 1030 nM
GI50 [4]: 208 nM
TGI [4]: 3540 nM
GI50 [5]: 130 nM
TGI [5]: 2050 nM
GI50 [6]: 155 nM
TGI [6]: 6470 nM
GI50 [7]: 188 nM
GI50 [8]: < 17.4 nM
TGI [8]: < 32.1 nM
GI50 [9]: 110 nM
TGI [9]: 728 nM
GI50 [10]: 33.1 nM
TGI [10]: 436 nM
GI50 [11]: 139 nM
TGI [11]: 287 nM
GI50 [12]: 125 nM
TGI [12]: 330 nM
GI50 [13]: 155 nM
TGI [13]: 1880 nM
GI50 [14]: 493 nM
TGI [14]: 2390 nM
GI50 [15]: 290 nM
TGI [15]: 13400 nM
GI50 [16]: < 14.5 nM
TGI [16]: 135 nM
GI50 [17]: 26 nM
TGI [17]: 302 nM
GI50 [18]: 109 nM
TGI [18]: 402 nM
GI50 [19]: 93.5 nM
TGI [19]: 566 nM
GI50 [20]: 116 nM
TGI [20]: 375 nM
GI50 [21]: 33.6 nM
TGI [21]: 88 nM
GI50 [22]: 73.6 nM
TGI [22]: 1050 nM
GI50 [23]: 150 nM
TGI [23]: 344 nM
GI50 [24]: 31.9 nM
TGI [24]: 1000 nM
GI50 [25]: 345 nM
TGI [25]: 12300 nM
GI50 [26]: 90.5 nM
TGI [26]: 252 nM
GI50 [27]: 158 nM
TGI [27]: 376 nM
GI50 [28]: 44.6 nM
GI50 [29]: 17.6 nM
TGI [29]: 134 nM
GI50 [30]: 60.2 nM
TGI [30]: 209 nM
GI50 [31]: 50.8 nM
TGI [31]: 742 nM
GI50 [32]: 237 nM
TGI [32]: 14100 nM
GI50 [33]: 78.2 nM
GI50 [34]: 899 nM
GI50 [35]: 171 nM
TGI [35]: 1220 nM
GI50 [36]: 193 nM
TGI [36]: 510 nM
GI50 [37]: 55 nM
TGI [37]: 282 nM
GI50 [38]: 191 nM
TGI [38]: 520 nM
GI50 [39]: 146 nM
TGI [39]: 325 nM
GI50 [40]: 40.7 nM
TGI [40]: 256 nM
GI50 [41]: 42.5 nM
TGI [41]: 394 nM
GI50 [42]: 637 nM
TGI [42]: 7470 nM
GI50 [43]: 275 nM
TGI [43]: 5550 nM
GI50 [44]: < 20.7 nM
TGI [44]: 103 nM
GI50 [45]: 88.7 nM
TGI [45]: 666 nM
GI50 [46]: 42.2 nM
TGI [46]: 227 nM
GI50 [47]: 201 nM
TGI [47]: 3480 nM
GI50 [48]: 204 nM
TGI [48]: 677 nM
GI50 [49]: 37.8 nM
TGI [49]: 203 nM
GI50 [50]: 44.9 nM
TGI [50]: 919 nM
GI50 [51]: < 22.2 nM
TGI [51]: 597 nM
GI50 [52]: 143 nM
TGI [52]: 326 nM
GI50 [53]: 141 nM
TGI [53]: 649 nM
GI50 [54]: 45.6 nM
TGI [54]: 408 nM
GI50 [55]: 120 nM
TGI [55]: 548 nM
GI50 [56]: 23.7 nM
TGI [56]: 79.2 nM
GI50 [57]: 290 nM
TGI [57]: 3820 nM
